Non-standard residues stand in square brackets, D forms with d. Residues, ends and D or L forms follow the SMILES beside them. ξ: configuration not given here. ξBip(2'-Et-4'-OMe) = CCc1cc(OC)ccc1-c1ccc(CC(N)C(=O)O)cc1; ξNva(5-(3-Cl-Ph)) = NC(CCCc1cccc(Cl)c1)C(=O)O
Columns and labels:
[1] = tested on: C57BL/6J mice (mild hyperglycemic); experiment: In vivo glucose reduction, acute single dose 120-min time-course, i.p. route; set-up: species or system mouse; unit not given here; conditions: male C57BL/6J mice
Procedure: All the animal experiments were carried out according to the internationally valid guidelines following approval by the ‘Zydus Research Center animal ethical committee’.
Two days prior to the study, the animals were randomised and divided into 5 groups (n=6), based upon their fed glucose levels. On the day of experiment, food was withdrawn from all the cages, water was given ad-libitum and were kept for overnight fasting. Vehicle (normal saline)/test/standard compounds were administered intraperitoneally (i.p.) or orally, on a body weight basis.
(§1) Blood samples were centrifuged and the separated serum was immediately subjected for the glucose estimation. Serum for insulin estimation was stored at −70° C. until used for the insulin estimation. The glucose estimation was carried out with DPEC-GOD/POD method (Ranbaxy Fine Chemicals Limited, Diagnostic division, India), using Spectramax-190, in 96-microwell plate reader (Molecular devices Corporation, Sunnyvale, Calif.). […] The AUC and BCAUC obtained from graphs were analyzed for one way ANOVA, followed by Dunnett's post test, using Graph Pad prism software. Furthermore, the insulin estimation was carried out using rat/mouse insulin ELISA kit (Linco research, Missouri USA).

[2] = tested on: C57BL/6J mice (mild hyperglycemic); experiment: In vivo glucose reduction, acute single dose 120-min time-course, oral route; set-up: species or system mouse; unit not given here; conditions: male C57BL/6J mice
Procedure: Acute single dose 120-min time-course experiments were carried out in male C57BL/6J or db/db mice, age 8-12 weeks, bred in-house. Animals were housed in groups of 6 animals per cage, for a week, in order to habituate them to vivarium conditions (25±4° C., 60-65% relative humidity, 12:12 h light:dark cycle, with lights on at 7.30 am). All the animal experiments were carried out according to the internationally valid guidelines following approval by the ‘Zydus Research Center animal ethical committee’.
Two days prior to the study, the animals were randomised and divided into 5 groups (n=6), based upon their fed glucose levels. On the day of experiment, food was withdrawn from all the cages, water was given ad-libitum and were kept for overnight fasting. Vehicle (normal saline)/test/standard compounds were administered intraperitoneally (i.p.) or orally, on a body weight basis. Soon after the 0 min. blood collection from each animal, the subsequent blood collections were done at 30, 60 and 120 or up to 240 min., via retro-orbital route, under light ether anesthesia (Chen, D., et al., Diabetes Obesity Metabolism, 2005, 7, 307. Kim, J. G. et al., Diabetes, 2003, 52, 751).
as §1, with “USA). Changes in the blood glucose levels, at 0, 30, 60 and 120 min, with selected peptidomimetics are shown in Table 7 (via ip route of administration) and Table 8 (via oral route of administration) respectively.” for “USA).”

SMILES: CCc1cc(OC)ccc1-c1ccc(CC(NC(=O)[C@H](CC(=O)O)NC(=O)[C@H](CO)NC(=O)[C@@H](NC(=O)[C@H](Cc2ccccc2)NC(=O)[C@@H](NC(=O)CNC(=O)C(CCC#N)NC(=O)C(C)(C)NC(=O)[C@@H](N)Cc2c[nH]cn2)[C@@H](C)O)[C@@H](C)O)C(=O)NC(CCCc2ccccc2)C(N)=O)cc1 (single isomer, unassigned) [Seq. ID. 29]
- blood glucose levels ([1]; 30 nM/kg i.p., 0 min): 180 ± 1.2
- blood glucose levels ([1]; 30 nM/kg i.p., 30 min): 116 ± 3.2
- blood glucose levels ([1]; 30 nM/kg i.p., 60 min): 116 ± 3.1
- blood glucose levels ([1]; 30 nM/kg i.p., 120 min): 118 ± 1.8
- blood glucose levels ([2]; 2 μM/kg oral, 0 min): 184 ± 2.5
- blood glucose levels ([2]; 2 μM/kg oral, 30 min): 118 ± 3.6
- blood glucose levels ([2]; 2 μM/kg oral, 60 min): 113 ± 4.2
- blood glucose levels ([2]; 2 μM/kg oral, 120 min): 110 ± 2.4

SMILES: CCc1cc(OC)ccc1-c1ccc(CC(NC(=O)[C@H](CC(=O)O)NC(=O)[C@H](CO)NC(=O)[C@@H](NC(=O)[C@H](Cc2ccccc2)NC(=O)[C@@H](NC(=O)CNC(=O)C(CCC#N)NC(=O)C(C)(C)NC(=O)[C@@H](N)Cc2c[nH]cn2)[C@@H](C)O)[C@@H](C)O)C(=O)NC(CCCc2ccc(Cl)cc2C)C(N)=O)cc1 (single isomer, unassigned) [Seq. ID. 32]
- blood glucose levels ([1]; 20 nM/kg i.p., 0 min): 182 ± 3.3
- blood glucose levels ([1]; 20 nM/kg i.p., 30 min): 120 ± 3.6
- blood glucose levels ([1]; 20 nM/kg i.p., 60 min): 127 ± 3.4
- blood glucose levels ([1]; 20 nM/kg i.p., 120 min): 145 ± 2.1
- blood glucose levels ([2]; 2 μM/kg oral, 0 min): 181 ± 2.5
- blood glucose levels ([2]; 2 μM/kg oral, 30 min): 117 ± 3.3
- blood glucose levels ([2]; 2 μM/kg oral, 60 min): 112 ± 4.0
- blood glucose levels ([2]; 2 μM/kg oral, 120 min): 108 ± 2.9

SMILES: CCc1cc(OC)ccc1-c1ccc(CC(NC(=O)[C@H](CC(=O)O)NC(=O)[C@H](CO)NC(=O)[C@@H](NC(=O)C(C)(Cc2ccccc2F)NC(=O)[C@@H](NC(=O)CNC(=O)C(CCC#N)NC(=O)C(C)(C)NC(=O)[C@@H](N)Cc2c[nH]cn2)[C@H](C)O)[C@H](C)O)C(=S)NC(CCCc2ccccc2F)C(N)=O)cc1 (single isomer, unassigned) [Seq. ID. 168]
- blood glucose levels ([1]; 20 nM/kg i.p., 0 min): 182 ± 3.3
- blood glucose levels ([1]; 20 nM/kg i.p., 30 min): 120 ± 3.6
- blood glucose levels ([1]; 20 nM/kg i.p., 60 min): 127 ± 3.4
- blood glucose levels ([1]; 20 nM/kg i.p., 120 min): 145 ± 2.1
- blood glucose levels ([2]; 1.5 μM/kg oral, 0 min): 183 ± 2.0
- blood glucose levels ([2]; 1.5 μM/kg oral, 30 min): 117 ± 1.1
- blood glucose levels ([2]; 1.5 μM/kg oral, 60 min): 112 ± 1.1
- blood glucose levels ([2]; 1.5 μM/kg oral, 120 min): 110 ± 1.8

SMILES: CCc1cc(OC)ccc1-c1ccc(CC(NC(=O)[C@H](CC(=O)O)NC(=O)[C@H](CO)NC(=O)[C@@H](NC(=O)[C@H](Cc2ccccc2)NC(=O)[C@@H](NC(=O)CNC(=O)C(CCC#N)NC(=O)C(C)(C)NC(=O)[C@@H](N)Cc2c[nH]cn2)[C@@H](C)O)[C@@H](C)O)C(=O)NC(CCCc2ccccc2F)C(N)=O)cc1 (single isomer, unassigned) [Seq. ID. 77]
- blood glucose levels ([1]; 20 nM/kg i.p., 0 min): 183 ± 4.9
- blood glucose levels ([1]; 20 nM/kg i.p., 30 min): 120 ± 2.8
- blood glucose levels ([1]; 20 nM/kg i.p., 60 min): 129 ± 3.0
- blood glucose levels ([1]; 20 nM/kg i.p., 120 min): 139 ± 2.0
- blood glucose levels ([2]; 2 μM/kg oral, 0 min): 183 ± 2.1
- blood glucose levels ([2]; 2 μM/kg oral, 30 min): 118 ± 3.4
- blood glucose levels ([2]; 2 μM/kg oral, 60 min): 113 ± 4.6
- blood glucose levels ([2]; 2 μM/kg oral, 120 min): 111 ± 2.8

SMILES: CCc1cc(OC)ccc1-c1ccc(CC(NC(=O)[C@H](CC(=O)O)NC(=O)[C@H](CO)NC(=O)[C@@H](NC(=O)[C@H](Cc2ccccc2)NC(=O)[C@@H](NC(=O)CNC(=O)C(CCC#N)NC(=O)C(C)(C)NC(=O)[C@@H](N)Cc2c[nH]cn2)[C@@H](C)O)[C@@H](C)O)C(=O)NC(CCCc2ccc(F)cc2C(F)(F)F)C(N)=O)cc1 (single isomer, unassigned) [Seq. ID. 80]
- blood glucose levels ([1]; 10 nM/kg i.p., 0 min): 183 ± 2.2
- blood glucose levels ([1]; 10 nM/kg i.p., 30 min): 113 ± 2.8
- blood glucose levels ([1]; 10 nM/kg i.p., 60 min): 113 ± 2.9
- blood glucose levels ([1]; 10 nM/kg i.p., 120 min): 114 ± 2.0
- blood glucose levels ([2]; 0.5 μM/kg oral, 0 min): 184 ± 2.5
- blood glucose levels ([2]; 0.5 μM/kg oral, 30 min): 115 ± 3.6
- blood glucose levels ([2]; 0.5 μM/kg oral, 60 min): 113 ± 4.2
- blood glucose levels ([2]; 0.5 μM/kg oral, 120 min): 110 ± 2.4

SMILES: CCc1cc(OC)ccc1-c1ccc(CC(CNC(CCCc2ccccc2)C(N)=O)NC[C@H](CC(=O)O)NC(=O)[C@H](CO)NC(=O)[C@@H](NC(=O)C(C)(Cc2ccccc2F)NC(=O)[C@@H](NC(=O)CNC(=O)C(CCC#N)NC(=O)C(C)(C)NC(=O)[C@@H](N)Cc2c[nH]cn2)[C@H](C)O)[C@H](C)O)cc1 (single isomer, unassigned) [Seq. ID. 202]
- blood glucose levels ([1]; 50 nM/kg i.p., 0 min): 183 ± 5.1
- blood glucose levels ([1]; 50 nM/kg i.p., 30 min): 122 ± 3.1
- blood glucose levels ([1]; 50 nM/kg i.p., 60 min): 130 ± 2.3
- blood glucose levels ([1]; 50 nM/kg i.p., 120 min): 148 ± 2.2
- blood glucose levels ([2]; 2 μM/kg oral, 0 min): 184 ± 2.5
- blood glucose levels ([2]; 2 μM/kg oral, 30 min): 115 ± 3.6
- blood glucose levels ([2]; 2 μM/kg oral, 60 min): 113 ± 4.2
- blood glucose levels ([2]; 2 μM/kg oral, 120 min): 110 ± 2.4

SMILES: CCc1cc(OC)ccc1-c1ccc(CC(NC(=O)[C@H](CC(=O)O)NC(=O)[C@H](CO)NC(=O)[C@@H](NC(=O)[C@H](Cc2ccccc2)NC(=O)[C@@H](NC(=O)CNC(=O)[C@H](CCC(N)=O)NC(=O)[C@H](C)NC(=O)[C@@H](N)Cc2c[nH]cn2)[C@@H](C)O)[C@@H](C)O)C(=O)NC(CCCc2cccc(Cl)c2)C(N)=O)cc1 (stereo partly drawn) [Seq. ID. 15] (H-HAQGTFTSD[ξBip(2'-Et-4'-OMe)][ξNva(5-(3-Cl-Ph))]-NH2)
- blood glucose levels ([1]; 30 nM/kg i.p., 0 min): 180 ± 3.2
- blood glucose levels ([1]; 30 nM/kg i.p., 30 min): 119 ± 3.2
- blood glucose levels ([1]; 30 nM/kg i.p., 60 min): 117 ± 3.1
- blood glucose levels ([1]; 30 nM/kg i.p., 120 min): 118 ± 1.8
- blood glucose levels ([2]; 2 μM/kg oral, 0 min): 183 ± 2.4
- blood glucose levels ([2]; 2 μM/kg oral, 30 min): 116 ± 3.1
- blood glucose levels ([2]; 2 μM/kg oral, 60 min): 112 ± 4.8
- blood glucose levels ([2]; 2 μM/kg oral, 120 min): 110 ± 2.5

SMILES: CCc1cc(OC)ccc1-c1ccc(CC(CNC(CCCc2ccccc2)C(N)=O)NC(=O)[C@H](CC(=O)O)NC(=O)[C@H](CO)NC(=O)[C@@H](NC(=O)C(C)(Cc2ccccc2F)NC(=O)[C@@H](NC(=O)CNC(=O)C(CCC#N)NC(=O)C(C)(C)NC(=O)[C@@H](N)Cc2c[nH]cn2)[C@H](C)O)[C@H](C)O)cc1 (single isomer, unassigned) [Seq. ID. 190]
- blood glucose levels ([1]; 10 nM/kg i.p., 0 min): 182 ± 2.1
- blood glucose levels ([1]; 10 nM/kg i.p., 30 min): 121 ± 2.9
- blood glucose levels ([1]; 10 nM/kg i.p., 60 min): 130 ± 3.1
- blood glucose levels ([1]; 10 nM/kg i.p., 120 min): 138 ± 2.4
- blood glucose levels ([2]; 2 μM/kg oral, 0 min): 183 ± 2.1
- blood glucose levels ([2]; 2 μM/kg oral, 30 min): 118 ± 3.4
- blood glucose levels ([2]; 2 μM/kg oral, 60 min): 113 ± 4.6
- blood glucose levels ([2]; 2 μM/kg oral, 120 min): 111 ± 2.8

SMILES: CCc1cc(OC)ccc1-c1ccc(CC(NC(=O)[C@H](CC(=O)O)NC(=O)[C@H](CO)NC(=O)[C@@H](NC(=O)[C@H](Cc2ccccc2)NC(=O)[C@@H](NC(=O)CNC(=O)C(CCC#N)NC(=O)C(C)(C)NC(=O)[C@@H](N)Cc2c[nH]cn2)[C@@H](C)O)[C@@H](C)O)C(=O)NC(CCCc2cc(C)cc(C)c2)C(N)=O)cc1 (single isomer, unassigned) [Seq. ID. 30]
- blood glucose levels ([1]; 30 nM/kg i.p., 0 min): 183 ± 3.6
- blood glucose levels ([1]; 30 nM/kg i.p., 30 min): 117 ± 3.3
- blood glucose levels ([1]; 30 nM/kg i.p., 60 min): 116 ± 3.2
- blood glucose levels ([1]; 30 nM/kg i.p., 120 min): 117 ± 1.4
- blood glucose levels ([2]; 2 μM/kg oral, 0 min): 183 ± 2.4
- blood glucose levels ([2]; 2 μM/kg oral, 30 min): 119 ± 3.1
- blood glucose levels ([2]; 2 μM/kg oral, 60 min): 112 ± 4.8
- blood glucose levels ([2]; 2 μM/kg oral, 120 min): 110 ± 2.5

From patent US8883963B2 (Cadila Healthcare Limited, priority 2007, dated 2014)
